Reference: patent US11884706B2, “Immunomodulating peptide derived from concave-eared torrent frog and use thereof” (priority 2019, dated 2024)

Assays:
[1] = tested on: bone marrow-derived macrophages (BMDMs); test: Transwell migration in co-incubation system with BMDMs in lower chamber; type: cell-based, mouse; details: 25-100 μg/mL, 8 h
Method: (§1) In a co-incubation system, mouse bone marrow-derived macrophages (BMDMs, 4×10^6 cells/mL, 500 μL) resuspended in RPMI 1640 medium containing 2% FBS were plated in the lower chamber (24-well plate) of the co-incubation chamber. After adherence, the prepared mouse neutrophils (7×10^6 cells/mL, 100 μL) or bone marrow-derived macrophages (BMDMs, 7×10^6 cells/mL, 100 μL) were added to the Transwell chamber with a pore size of 3.0 μm (upper chamber, 24-well plate). Then 500 μL of Ot-WHP (25, 50, 100 μg/mL, dissolved in RPMI 1640 medium containing 2% FBS) or the culture medium (control) was added to the lower chamber, and then cultured in a cell incubator at 37° C. for 8 h. The cells in the upper chamber were collected and counted with a hemocytometer. The reduced cells in the upper chamber are the migrated cells

macrophages = test: Immunohistochemical count of macrophages (anti-F4/80) recruited to the wound; type: in vivo, mice; details: natural Ot-WHP dripped to wound; days 2 and 3 after operation; vs negative control
Method: (§2) The mice were treated according to the method in Example 3. The drugs in the negative control group and the natural Ot-WHP group were dripped to wounds of corresponding mice. At specified time point (0.5, 1, 2, 3 days) after the operation, the mice were sacrificed. A biopsy tissue containing the wound center was taken, immobilized with 10% formalin, then dehydrated by ethanol, washed with xylene, and finally embedded in paraffin. The paraffin block was cut into 5 μm slices, deparaffinized, and hydrated, and antigen retrieval was performed for immunohistochemical analysis. The slice was blocked with 5% BSA for non-specific sites, incubated with the primary antibody (anti-Ly6G for neutrophils, and anti-F4/80 for macrophages) at 4° C., and immunostained with horseradish peroxidase and DBA. The infiltration by neutrophils and macrophages was measured by statistically counting the immunostained anti-Ly6G and anti-F4/80 cells.
(§3) FIGS. 4A1-A4 show the immunohistochemical results of neutrophils recruited on days 0.5 and 1 after operation of mice in different groups. FIGS. 4C1-C4 show the immunohistochemical results of macrophages recruited on days 2 and 3 after operation of mice in different groups. FIGS. 4B1-B2 show the statistical results of neutrophils recruited on days 0.5 and 1 after operation of mice in different groups. […]

HaCat = test: Keratinocyte proliferation, co-incubation with THP-1 derived macrophages (CCK-8); type: cell-based; details: HaCat with THP-1 derived macrophages, 25, 50, 100 μg/mL, 24 h
Method: (§4) HaCat was co-incubated with THP-1 derived macrophages, and mouse fibroblasts were co-incubated with mouse macrophages BMDMs. HaCat (1×10^5 cells/well) or mouse fibroblasts (1×10^5 cells/well) were inoculated into a 24-well plate (lower chamber) one day in advance. After adherence, corresponding macrophages (1×10^5 cells/well, 100 μL) and different concentrations of Ot-WHP (25, 50, 100 μg/mL) or Vehicle (PBS, control) were added to the co-incubation chamber (upper chamber). After HaCat was co-incubated with THP-1-derived macrophages for 24 h, and the fibroblasts were co-incubated with mouse macrophages BMDMs for 72 h, the co-incubated upper chamber was discarded, and the cell activity in the lower chamber was detected by CCK-8.

Smad (Smad2, Smad3) = test: Activation of TGF-β/Smad signaling in BMDMs; type: cell-based, mouse
Method: (§5) Mouse bone marrow-derived macrophages (BMDMs) were inoculated into a 6-well plate and cultured without serum for 16 h. For the detection of MAPKs and NF-κB, BMDMs were incubated with different concentrations of Ot-WHP (0, 25, 50, 100 μg/mL) for 30 min. For the detection of TGF-β/Smad signaling pathway, BMDMs were incubated with different concentrations of Ot-WHP (0, 25, 50, 100 μg/mL) for 24 h, or BMDMs were incubated with 100 μg/mL Ot-WHP, with or without TGF-β1 antibody.

mouse neutrophils [2] = test: Transwell migration in co-incubation system with BMDMs in lower chamber; type: cell-based; details: 25-100 μg/mL, 8 h
Method: as §1

[3] = tested on: bone marrow-derived macrophages (BMDMs); test: Transwell migration, direct (peptide in lower chamber); type: cell-based, mouse; details: 25-100 μg/mL, 8 h, no macrophages in lower chamber
Method: (§6) To clarify how Ot-WHP chemoattracts neutrophils and macrophages to the wound area, the prepared mouse neutrophils or bone marrow-derived macrophages (BMDMs) were resuspended in RPMI 1640 medium containing 2% FBS at a cell density of 7×10^6 cells/mL. 100 μL was pipetted to a Transwell chamber with a pore size of 3.0 μm (upper chamber, 24-well plate). Then 500 μL of Ot-WHP (25, 50, 100 μg/mL, dissolved in RPMI 1640 medium containing 2% FBS) or the culture medium (control) was pipetted to the lower chamber, and then cultured in a cell incubator at 37° C. for 8 h. The cells in the lower chamber were collected and counted with a hemocytometer.

mouse fibroblasts [4] = test: Fibroblast proliferation, direct (CCK-8); type: cell-based; details: mouse fibroblasts, 25, 50, 100 μg/mL, 72 h
Method: (§7) Keratinocytes HaCat and mouse fibroblasts (5×10^3 cells/well, 100 μL/well) were inoculated into a 96-well plate, and incubated with different concentrations of Ot-WHP (25, 50, and 100 μg/mL). PBS was used as a control. After HaCat was incubated with Ot-WHP for 24 h, and the fibroblasts were incubated with Ot-WHP for 72 h, 10 μl of Cell Counting Kit-8 (CCK-8) solution was added to each well, and incubated for another 2-4 h at 37° C. The absorbency at 450 nm was detected on a microplate reader.

[5] = tested on: NF-κB (IκBα, p65 subunit); test: Activation of NF-κB signaling in BMDMs; type: cell-based, mouse; details: BMDMs, 0, 25, 50, 100 μg/mL, 30 min
Method: as §5

Keratinocytes HaCat = test: Keratinocyte proliferation, direct (CCK-8); type: cell-based; details: HaCat, 25, 50, 100 μg/mL, 24 h
Method: as §7

skin wounds of mice = test: Chemokine and cytokine production in skin wound tissue homogenate; type: in vivo; details: days 0, 0.5, 1, 2, 4, 6, vs PBS
Method: Then whether Ot-WHP can induce the production of chemokines and cytokines in the skin wounds of mice was tested. At specified time points (days 0, 0.5, 1, 2, 4, and 6), the wound tissue of the mice was removed and homogenized with 0.1 M PBS (containing 1 mM PMSF, 1 mL/g tissue) in a glass homogenizer. After the homogenization, the homogenate was centrifuged at 12000×g and 4° C. for 30 min. The supernatant was collected, and the chemokines (CXCL1 and CCL2) and cytokines (including TNF-α and TGF-β1) were determined.

MAPKs (ERK, JNK subunit) = test: Activation of MAPKs signaling in BMDMs; type: cell-based, mouse; details: BMDMs, 0, 25, 50, 100 μg/mL, 30 min
Method: as §5

α-SMA in fibroblasts [6] = test: α-SMA expression in fibroblasts by Western blot, co-incubation with macrophages; type: cell-based, mouse; details: fibroblasts co-incubated with macrophages
Method: as §4
(§8) The method was the same as that in Example 8. The fibroblasts treated in Example 8 were lysed with RIPA cell lysis solution. The protein was extracted, and the expression of α-SMA was detected by Western blot. A higher expression level of α-SMA means a higher transformation of fibroblasts into […]. The supernatant of the fibroblasts treated in Example 8 was collected, and the production of collagen in the supernatant was quantitatively detected with an ELISA kit.

α-SMA in fibroblasts [7] = test: α-SMA expression in fibroblasts by Western blot, direct; type: cell-based, mouse; details: fibroblasts alone, treated as in Example 8
Method: as §7, §8

neutrophils = test: Immunohistochemical count of neutrophils (anti-Ly6G) recruited to the wound; type: in vivo, mice; details: natural Ot-WHP dripped to wound; days 0.5 and 1 after operation; vs negative control
Method: as §2, §3

mouse fibroblasts [8] = test: Fibroblast proliferation, co-incubation with mouse macrophages BMDMs (CCK-8); type: cell-based; details: mouse fibroblasts with BMDMs, 25, 50, 100 μg/mL, 72 h
Method: as §4

mouse skin wounds = test: Skin wound healing in mice (8 mm biopsy punch wound on the back); type: in vivo, BALB/c mice; details: 20 μL, 200 μg/mL dripped into wound once a day for 8 days; days 2, 4, 6, 8 after operation; vs PBS
Method: Experimental animals BALB/c mice, female, 6-8 weeks old, weighed 18-20 g, were purchased from Shanghai Slac Animal Co., Ltd. The mice were anesthetized by intraperitoneal injection of 2% sodium pentobarbital (0.1 mL/20 g), and the back was shaved with an electric razor and disinfected with iodophor. A hole was punched in the exposed back by a biopsy punch having a diameter of 8 mm. After the operation, the mice were kept in separate cages until the end of the experiment. The mice were randomly divided into 6 groups having 5 animals in each group, including a negative control group (20 μL PBS), a natural Ot-WHP group (20 μL, 200 μg/mL), a synthetic Ot-WHP group (20 μL, 200 μg/mL), a scrambled Ot-WHP group (SEQ ID NO:2, 20 μL, 200 μg/mL), an AH90 positive polypeptide control group (20 μL, 200 μg/mL), and an EGF growth factor control group (20 μL, 100 μg/mL). The drugs were dripped into corresponding wounds in mice once a day for 8 days.
FIGS. 3A1-A4 show the wound healing rate of mice in different experimental groups at 2, 4, 6, and 8 days after surgery. In the figures, Vehicle represents the negative control group; synthetic Ot-WHP represents the synthetic Ot-WHP group; Natural Ot-WHP represents the natural Ot-WHP group; and Scrambled Ot-WHP represents the scrambled Ot-WHP group.

mouse neutrophils [9] = test: Transwell migration, direct (peptide in lower chamber); type: cell-based; details: 25-100 μg/mL, 8 h, no macrophages in lower chamber
Method: as §6

fibroblasts [10] = test: Collagen in fibroblast supernatant by ELISA, co-incubation with macrophages; type: cell-based, mouse; details: fibroblasts co-incubated with macrophages
Method: as §4, §8

[11] = tested on: mouse bone marrow-derived macrophages (BMDMs); test: Chemokine and cytokine production in BMDM supernatant; type: cell-based; details: 25, 50, 100 μg/mL, 24 h, vs PBS
Method: To clarify why Ot-WHP can cause the migration of neutrophils and macrophages in the coexistence of macrophages, mouse bone marrow-derived macrophages (BMDMs, 5×10^5 cells/well, DMEM medium, 2% FBS) were plated in a 24-well plate, Ot-WHP (25, 50, 100 μg/mL) or an equal volume of PBS (Vehicle) were added, and cultured for 24 h. The supernatant was collected, and centrifuged at 10000×g for 10 min. The chemokines and cytokines were determined.

fibroblasts [12] = test: Collagen in fibroblast supernatant by ELISA, direct; type: cell-based, mouse; details: fibroblasts alone
Method: as §7, §8

Ot-WHP: immunomodulating peptide of 24 amino acids from concave-eared torrent frog skin, sequence ATAWDLGPHGIRPLRPIRIRPLCG (SEQ ID NO:1); natural (purified) or chemically synthesized (Ot-WHP Peptide; listed as Odorrana tormota)
migration of macrophages when macrophages coexist [1]: significantly causes the migration
migration of macrophages to the wound (macrophages): promote the migration of neutrophils and macrophages to the wound
proliferation of keratinocytes when macrophages coexist (HaCat): can promote the proliferation
activation of Smad (Smad2, Smad3) signaling pathway (Smad (Smad2, Smad3); BMDMs, 0, 25, 50, 100 μg/mL, 24 h): activates
dependence of Smad activation on TGF-β (Smad (Smad2, Smad3); BMDMs, 100 μg/mL, with or without TGF-β1 antibody): dependent on the production of TGF-β induced by Ot-WHP
migration of neutrophils when macrophages coexist (mouse neutrophils [2]): significantly causes the migration
migration of macrophages, direct [3]: does not directly cause the migration
proliferation of fibroblasts, direct (mouse fibroblasts [4]): cannot directly promote the proliferation
activation of NF-κB (IκBα, p65 subunit) signaling pathway [5]: activates
proliferation of keratinocytes, direct (Keratinocytes HaCat): cannot directly promote the proliferation
CCL2 production in skin wounds (skin wounds of mice): effectively induce the production
CXCL1 production in skin wounds (skin wounds of mice): effectively induce the production
TGF-β1 production in skin wounds (skin wounds of mice): effectively induce the production
TNF-α production in skin wounds (skin wounds of mice): effectively induce the production
activation of MAPKs (ERK, JNK subunit) signaling pathway (MAPKs (ERK, JNK subunit)): activates
expression of α-SMA by fibroblasts (transformation into fibrocytes) with coexisting macrophages (α-SMA in fibroblasts [6]): promote the expression of α-SMA by fibroblast
expression of α-SMA in fibroblasts (transformation into fibrocytes), direct (α-SMA in fibroblasts [7]): no direct effect on the expression of α-SMA in fibroblasts
migration of neutrophils to the wound (neutrophils): promote the migration of neutrophils and macrophages to the wound
proliferation of fibroblasts when macrophages coexist (mouse fibroblasts [8]): can promote the proliferation
healing of mouse skin wounds (wound healing rate) (mouse skin wounds): significantly promote the healing of mouse skin wounds with an effect comparable to AH90 and EGF
migration of neutrophils, direct (mouse neutrophils [9]): does not directly cause the migration
collagen production by fibroblasts with coexisting macrophages (fibroblasts [10]): promote the collagen production by fibroblasts
CCL2 production in BMDMs [11]: induces mouse BMDMs to produce
CXCL1 production in BMDMs [11]: induces mouse BMDMs to produce
CXCL2 production in BMDMs [11]: induces mouse BMDMs to produce
CXCL3 production in BMDMs [11]: induces mouse BMDMs to produce
IL-1β production in BMDMs [11]: induces mouse BMDMs to produce
IL-6 production in BMDMs [11]: induces mouse BMDMs to produce
TGF-β1 production in BMDMs [11]: induces mouse BMDMs to produce
TNF-α production in BMDMs [11]: induces mouse BMDMs to produce
collagen production by fibroblasts, direct (fibroblasts [12]): no direct effect on the collagen production by fibroblasts

scrambled Ot-WHP: scrambled Ot-WHP, SEQ ID NO:2, control peptide (PGPIPAHLGRRWAILIRPDLTRCG; Scrambled Ot-WHP Peptide) [reference compound]
healing of mouse skin wounds (wound healing rate) (mouse skin wounds): no activity to promote wound repair
